Consider 21 compounds from patent publication US8263598B2, “Substituted sulfonamide compounds” (Gruenenthal GmbH, priority 2008, dated 2012).

The target of assay [1] is T1, B1R receptor of rats (rB1R) (Rattus norvegicus, UniProt P97583).
T1 construct: host or cells: CHO K1 cells
T1 sequence (P97583 1-337): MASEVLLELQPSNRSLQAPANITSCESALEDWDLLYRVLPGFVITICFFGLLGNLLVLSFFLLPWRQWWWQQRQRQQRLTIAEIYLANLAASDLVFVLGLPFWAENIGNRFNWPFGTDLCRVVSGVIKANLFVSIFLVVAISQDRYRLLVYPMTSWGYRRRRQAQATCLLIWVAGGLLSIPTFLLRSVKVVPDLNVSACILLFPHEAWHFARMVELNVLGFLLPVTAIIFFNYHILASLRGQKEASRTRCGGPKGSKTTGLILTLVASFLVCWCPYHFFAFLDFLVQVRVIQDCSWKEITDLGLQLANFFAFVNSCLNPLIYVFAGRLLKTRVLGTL
Put plainly: FLIPR Ca2+ assay on rat bradykinin 1 receptor (CHO K1 rB1R cells). It counts as cell-based. The following applies: test substance 10 μM; CHO K1 cells with B1R gene of rats; agonist Des-Arg9-bradykinin 100 nM; compared to maximum achievable inhibition. The essentials: (§1)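 Values are percent inhibition of agonist-evoked Ca²⁺ influx, measured by Fluo-4 fluorescence peak in FLIPR relative to maximum achievable inhibition. Compound at 10 μM was preincubated 10 min on B1R-transfected CHO K1 cells before challenge with 0.5 nM Lys-Des-Arg9-bradykinin (human) or 100 nM Des-Arg9-bradykinin (rat).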

Assay [2] has as its target T2, human B1R receptor (hB1R) (Homo sapiens, UniProt P46663).
T2 construct: host or cells: CHO K1 cells
T2 sequence (P46663 1-353): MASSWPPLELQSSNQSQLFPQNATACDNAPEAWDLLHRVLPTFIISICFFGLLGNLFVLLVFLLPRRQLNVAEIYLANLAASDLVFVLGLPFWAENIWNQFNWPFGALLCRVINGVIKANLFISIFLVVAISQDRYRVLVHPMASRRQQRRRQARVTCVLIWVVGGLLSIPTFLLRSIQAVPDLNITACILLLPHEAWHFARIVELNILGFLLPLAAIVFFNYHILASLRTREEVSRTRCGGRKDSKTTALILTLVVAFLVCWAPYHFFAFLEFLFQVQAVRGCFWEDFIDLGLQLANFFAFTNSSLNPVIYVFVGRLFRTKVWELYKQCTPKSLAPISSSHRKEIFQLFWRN
Put plainly: FLIPR Ca2+ assay on human bradykinin 1 receptor (CHO K1 hB1R cells). The conditions noted are these: test substance 10 μM; CHO K1 cells with human B1R gene; agonist Lys-Des-Arg9-bradykinin 0.5 nM; compared to maximum achievable inhibition. It is filed as cell-based. Put shortly:
as §1

Regarding `Cc1cc(C)c(S(=O)(=O)N(C)CCOCC(=O)N2CCn3cccc3C2c2ccc(F)c(F)c2)c(C)c1` (stereo not drawn) [Example 71, N-(2-(2-(1-(3,4-difluorophenyl)-3,4-dihydropyrrolo[1,2-a]pyrazin-2(1H)-yl)-2-oxoethoxy)ethyl)-N,2,4,6-tetramethylbenzenesulfonamide], the inhibition at 10 µM in assay [1] and in assay [2] was 95% in each case.
For the compound `Cc1cc(C)c(S(=O)(=O)N(C)CCOCC(=O)N2CCn3cccc3C2c2ccc(C)c(C)c2)c(C)c1` (stereo not drawn) [Example 72, N-(2-(2-(1-(3,4-dimethylphenyl)-3,4-dihydropyrrolo[1,2-a]pyrazin-2(1H)-yl)-2-oxoethoxy)ethyl)-N,2,4,6-tetramethylbenzenesulfonamide], the figures for the inhibition at 10 µM in assay [1] and in assay [2] were 71% and 97%, respectively.
Regarding `Cc1cc(C)c(S(=O)(=O)N(C)CCOCC(=O)N2CCn3cccc3C2c2cccc(F)c2)c(C)c1` (stereo not drawn) [Example 73, N-(2-(2-(1-(3-fluorophenyl)-3,4-dihydropyrrolo[1,2-a]pyrazin-2(1H)-yl)-2-oxoethoxy)ethyl)-N,2,4,6-tetramethylbenzenesulfonamide], the inhibition (usually the drop in the measured response relative to a control, in per cent) at 10 µM stood at 99% in assay [1] and 102% in assay [2].
On the same counts, the results for `Cc1cc(C)c(S(=O)(=O)N(C)CCOCC(=O)N2CCn3cccc3C2c2cccs2)c(C)c1` (stereo not drawn) [Example 74, N,2,4,6-tetramethyl-N-(2-(2-oxo-2-(1-(thiophen-2-yl)-3,4-dihydropyrrolo[1,2-a]pyrazin-2(1H)-yl)ethoxy)ethyl)benzenesulfonamide] are 102% and 99%.
In the case of `Cc1cc(C)c(S(=O)(=O)N(C)CCOCC(=O)N2CCn3cccc3C2c2cccc(C(F)(F)F)c2)c(C)c1` (stereo not drawn) [Example 75, N,2,4,6-tetramethyl-N-(2-(2-oxo-2-(1-(3-(trifluoromethyl)phenyl)-3,4-dihydropyrrolo[1,2-a]pyrazin-2(1H)-yl)ethoxy)ethyl)benzenesulfonamide], the figures for the inhibition at 10 µM in assay [1] and in assay [2] were 48% and 63%, respectively.
Take `COc1cccc(C2c3cccn3CCN2C(=O)COCCN(C)S(=O)(=O)c2c(C)cc(C)cc2C)c1` (stereo not drawn) [Example 76, N-(2-(2-(1-(3-methoxyphenyl)-3,4-dihydropyrrolo[1,2-a]pyrazin-2(1H)-yl)-2-oxoethoxy)ethyl)-N,2,4,6-tetramethylbenzenesulfonamide]: the inhibition at 10 µM amounted to 97% in assay [1] and 101% in assay [2].
Take `Cc1cc(C)c(S(=O)(=O)N(C)CCOCC(=O)N2CCn3cccc3C2c2ccc(C(F)(F)F)cc2F)c(C)c1` (stereo not drawn) [Example 77, N-(2-(2-(1-(2-fluoro-4-(trifluoromethyl)phenyl)-3,4-dihydropyrrolo[1,2-a]pyrazin-2(1H)-yl)-2-oxoethoxy)ethyl)-N,2,4,6-tetramethylbenzenesulfonamide]: the inhibition at 10 µM came out at 53% in assay [1] and 71% in assay [2].
With `Cc1cc(C)c(S(=O)(=O)N(C)CCOCC(=O)N2CCn3cccc3C2c2ccc(C(C)(C)C)cc2)c(C)c1` (stereo not drawn) [Example 78, N-(2-(2-(1-(4-tert-butylphenyl)-3,4-dihydropyrrolo[1,2-a]pyrazin-2(1H)-yl)-2-oxoethoxy)ethyl)-N,2,4,6-tetramethylbenzenesulfonamide], the inhibition at 10 µM was 77% in assay [1] and 32% in assay [2].
`COc1cc(C)c(S(=O)(=O)N(C)CCOCC(=O)N2CCn3cccc3C2C(C)(C)C)c(C)c1C` (stereo not drawn) [Example 79, N-(2-(2-(1-tert-butyl-3,4-dihydropyrrolo[1,2-a]pyrazin-2(1H)-yl)-2-oxoethoxy)ethyl)-4-methoxy-N,2,3,6-tetramethylbenzenesulfonamide]: the inhibition at 10 µM was 100% in assay [1] and 101% in assay [2].
Take `COc1cc(C)c(S(=O)(=O)N(C)CCOCC(=O)N2CCn3cccc3C2C)c(C)c1C` (stereo not drawn) [Example 80, 4-methoxy-N,2,3,6-tetramethyl-N-(2-(2-(1-methyl-3,4-dihydropyrrolo[1,2-a]pyrazin-2(1H)-yl)-2-oxoethoxy)ethyl)benzenesulfonamide]: the inhibition at 10 µM in assay [1] is 97%; in assay [2], 99%.
In the case of `COc1cc(C)c(S(=O)(=O)N(C)CCOCC(=O)N2CCn3cccc3C2c2cccnc2)c(C)c1C` (stereo not drawn) [Example 81, 4-methoxy-N,2,3,6-tetramethyl-N-(2-(2-oxo-2-(1-(pyridin-3-yl)-3,4-dihydropyrrolo[1,2-a]pyrazin-2(1H)-yl)ethoxy)ethyl)benzenesulfonamide], the inhibition at 10 µM stood at 99% in assay [1] and 98% in assay [2].
Consider `COc1cc(C)c(S(=O)(=O)N(C)CCOCC(=O)N2CCn3cccc3C2c2ccc(Cl)nc2)c(C)c1C` (stereo not drawn) [Example 82, N-(2-(2-(1-(6-chloropyridin-3-yl)-3,4-dihydropyrrolo[1,2-a]pyrazin-2(1H)-yl)-2-oxoethoxy)ethyl)-4-methoxy-N,2,3,6-tetramethylbenzenesulfonamide], for which the inhibition at 10 µM in assay [1] worked out at 99%; in assay [2], 101%.
As to `COc1ccc(C2c3cccn3CCN2C(=O)COCCN(C)S(=O)(=O)c2c(C)cc(OC)c(C)c2C)cc1` (stereo not drawn) [Example 83, 4-methoxy-N-(2-(2-(1-(4-methoxyphenyl)-3,4-dihydropyrrolo[1,2-a]pyrazin-2(1H)-yl)-2-oxoethoxy)ethyl)-N,2,3,6-tetramethylbenzenesulfonamide], the inhibition at 10 µM is 100% in assay [1] and 101% in assay [2].
`COc1cc(C)c(S(=O)(=O)N(C)CCOCC(=O)N2CCn3cccc3C2c2ccccc2)c(C)c1C` (stereo not drawn) [Example 84, 4-methoxy-N,2,3,6-tetramethyl-N-(2-(2-oxo-2-(1-phenyl-3,4-dihydropyrrolo[1,2-a]pyrazin-2(1H)-yl)ethoxy)ethyl)benzenesulfonamide]: the inhibition at 10 µM in assay [1] was determined as 99%; in assay [2] it was 101%.
Consider `COc1cc(C)c(S(=O)(=O)N(C)CCOCC(=O)N2CCn3cccc3C2c2ccc(F)c(F)c2)c(C)c1C` (stereo not drawn) [Example 85, N-(2-(2-(1-(3,4-difluorophenyl)-3,4-dihydropyrrolo[1,2-a]pyrazin-2(1H)-yl)-2-oxoethoxy)ethyl)-4-methoxy-N,2,3,6-tetramethylbenzenesulfonamide], for which the inhibition at 10 µM in assay [1] worked out at 92%; in assay [2] it was 99%.
On the same counts, the results for `COc1cc(C)c(S(=O)(=O)N(C)CCOCC(=O)N2CCn3cccc3C2c2ccc(C)c(C)c2)c(C)c1C` (stereo not drawn) [Example 86, N-(2-(2-(1-(3,4-dimethylphenyl)-3,4-dihydropyrrolo[1,2-a]pyrazin-2(1H)-yl)-2-oxoethoxy)ethyl)-4-methoxy-N,2,3,6-tetramethylbenzenesulfonamide] are 71% and 91%.
Regarding `COc1cc(C)c(S(=O)(=O)N(C)CCOCC(=O)N2CCn3cccc3C2c2cccc(F)c2)c(C)c1C` (stereo not drawn) [Example 87, N-(2-(2-(1-(3-fluorophenyl)-3,4-dihydropyrrolo[1,2-a]pyrazin-2(1H)-yl)-2-oxoethoxy)ethyl)-4-methoxy-N,2,3,6-tetramethylbenzenesulfonamide], the inhibition at 10 µM in assay [1] turned out to be 100%; in assay [2], 101%.
Take `COc1cc(C)c(S(=O)(=O)N(C)CCOCC(=O)N2CCn3cccc3C2c2cccs2)c(C)c1C` (stereo not drawn) [Example 88, 4-methoxy-N,2,3,6-tetramethyl-N-(2-(2-oxo-2-(1-(thiophen-2-yl)-3,4-dihydropyrrolo[1,2-a]pyrazin-2(1H)-yl)ethoxy)ethyl)benzenesulfonamide]: the inhibition at 10 µM was 98% in assay [1] and 101% in assay [2].
On to `COc1cccc(C2c3cccn3CCN2C(=O)COCCN(C)S(=O)(=O)c2c(C)cc(OC)c(C)c2C)c1` (stereo not drawn) [Example 89, 4-methoxy-N-(2-(2-(1-(3-methoxyphenyl)-3,4-dihydropyrrolo[1,2-a]pyrazin-2(1H)-yl)-2-oxoethoxy)ethyl)-N,2,3,6-tetramethylbenzenesulfonamide], for which the figures for the inhibition at 10 µM in assay [1] and in assay [2] were 98% and 100%, respectively.
`COc1cc(C)c(S(=O)(=O)N(C)CCOCC(=O)N2CCn3cccc3C2c2ccc(C(C)(C)C)cc2)c(C)c1C` (stereo not drawn) [Example 90, N-(2-(2-(1-(4-tert-butylphenyl)-3,4-dihydropyrrolo[1,2-a]pyrazin-2(1H)-yl)-2-oxoethoxy)ethyl)-4-methoxy-N,2,3,6-tetramethylbenzenesulfonamide]: the inhibition at 10 µM in assay [1] was determined as 66%; in assay [2], 47%.
With `COc1cc(C)c(S(=O)(=O)N(CCOCC(=O)N2CCn3c(CN(C)C)ccc3C2c2ccccc2)CC(C)C)c(C)c1C` (stereo not drawn) [Example 91, N-(2-(2-(6-((dimethylamino)methyl)-1-phenyl-3,4-dihydropyrrolo[1,2-a]pyrazin-2(1H)-yl)-2-oxoethoxy)ethyl)-N-isobutyl-4-methoxy-2,3,6-trimethylbenzene-sulfonamide], the inhibition at 10 µM in assay [1] and in assay [2] was 103% in each case.
